Results taken from patent US9321718B2 (CHROMA THERAPEUTICS LTD., priority 2010, dated 2016).
Read-outs that look alike come from different tables or passages of the source.

Experiments:
[1] = molecular target: T1, human recombinant his-tagged HSP90α (Homo sapiens, UniProt P07900); assay: HSP90 enzyme assay (HTRF, competition with biotinylated Geldanamycin); type: binding; conditions: for IC50: IC50 range, read-out: Enzyme Assay
T1 construct: purchased Prospec Technogene #HSP90
Description: An HTRF (homogeneous time resolved fluorescence) assay is used to measure the interaction of the compounds with HSP90. The assay measures binding of biotinylated Geldanamycin (bio-GM; Biomol, #EI-341, lot: A9199a) to human recombinant his-tagged HSP90α (HSP90; Prospec Technogene, #HSP90, lot: 260HSP9001). A signal is generated by fluorescence resonance energy transfer from an Europium-cryptate labeled anti-his antibody (anti-his-K; Cisbio International, #61HISKLA, lot: 33V) via the HSP90-GM-biotin complex to a fluorescence acceptor (allophycocyanin) linked to streptavidin (SA-XL; Cisbio International, #610SAXLB, lot: 089).
Unlabeled GM or compounds compete with the bio-GM for binding to HSP90 resulting in reduced fluorescence energy transfer/assay signal.
A preformed (1 hour incubation) complex of HSP90 with the anti-his-K is added to the compound solution in a 384 well microplate (Corning, #3710) and incubated for 15 minutes. A preformed (1 hour incubation) complex of bio-GM with the SA-XL is added to the wells and incubated for 20 hours. All incubations are performed at room temperature. The final assay volume is 50 μl/well. The final concentrations in the assay are: 50 mM Hepes pH 7.3, 50 mM NaCl, 100 mM KF, 1 mM EDTA, 1 mM DTT, 0.1% Triton-X-100, […] HSP90, 40 nM SA-XL, 40 nM bio-GM. Test compounds are dissolved in DMSO, prediluted in assay buffer and tested at a final concentration between 5000 nM and 0.3 nM. The resulting DMSO concentration is 0.5% and included in all controls. High controls are without test compounds, low controls without test compounds, without HSP90 and without bio-GM. As a reference inhibitor unlabeled GM is used in the same concentrations as the test compounds.
Inhibition is calculated compared to the assay controls using an Excel spreadsheet (Microsoft). IC50 values are calculated by non-linear least squares fitting to the standard dose-response model using GraphPad Prism (GraphPad Software Inc).

[2] = system: TNFα release from LPS stimulated THP-1 (hCE-1 +ve) cells; assay: LPS-stimulation of THP-1 cells (TNF-α release); type: cell-based, human; conditions: IC50 range, TNF-α after LPS 1 μg/ml, 6 hours, read-out: THP-1 Assay
Experimental: THP-1 cells are plated in […] at a density of 4×10^4 cells/well in V-bottomed 96 well tissue culture treated plates and incubated at 37° C. in 5% CO2 for 16 hours. 2 Hours after the addition of the inhibitor in 100 μl of tissue culture media, the cells are stimulated with LPS (E. Coli strain 005:B5, Sigma) at a final concentration of 1 μg/ml and incubated at 37° C. in 5% CO2 for 6 hours. TNF-α levels are measured from cell-free supernatants by sandwich ELISA (R&D Systems #QTA00B).

| IC50 [1] | IC50 ([2]; Homo sapiens, THP-1) | IC50 [2] | IC50 in the Hsp90 binding assay compared with CHR-7310 ([1]; in words, relative to non-ester parent CHR-7310) | Compound |
| --- | --- | --- | --- | --- |
| < 100 nM | 100 to 1000 nM | – | – | CC(C)c1cc(C(=O)N2CCC(CCN[C@@H](CO)C(=O)OC3CCCC3)CC2)c(O)cc1O [Example 47, cyclopentyl N-[2-(1-{[2,4-dihydroxy-5-(propan-2-yl)phenyl]carbonyl}piperidin-4-yl)ethyl]-L-serinate] |
| < 100 nM | 100 to 1000 nM | – | – | CC(C)C[C@H](NCCC1CCN(C(=O)c2cc(C(C)C)c(O)cc2O)CC1)C(=O)OC(C)(C)C [Example 42, tert-butyl N-[2-(1-{[2,4-dihydroxy-5-(propan-2-yl)phenyl]carbonyl}piperidin-4-yl)ethyl]-L-leucinate] |
| < 100 nM | < 100 nM | – | – | CC(C)c1cc(C(=O)N2CCC(CCN[C@@H](C)C(=O)OC3CCCC3)CC2)c(O)cc1O [Example 39, cyclopentyl N-[2-(1-{[2,4-dihydroxy-5-(propan-2-yl)phenyl]carbonyl}piperidin-4-yl)ethyl]-L-alaninate] |
| < 100 nM | 100 to 1000 nM | – | – | CC(C)c1cc(C(=O)N2CCC(CCN[C@H](C(=O)OC3CCCC3)c3ccccc3)CC2)c(O)cc1O [Example 51, cyclopentyl (2S)-{[2-(1-{[2,4-dihydroxy-5-(propan-2-yl)phenyl]carbonyl}piperidin-4-yl)ethyl]amino}(phenyl)ethanoate] |
| < 100 nM | – | – | – | CC(C)C[C@H](NC1CCN(C(=O)c2cc(C(C)C)c(O)cc2O)CC1)C(=O)O [Example 96, N-(1-{[2,4-dihydroxy-5-(propan-2-yl)phenyl]carbonyl}piperidin-4-yl)-L-leucine] |
| < 100 nM | – | – | – | CC(C)c1cc(C(=O)N(C)Cc2ccc(CNC(C)(C)C(=O)O)cc2)c(O)cc1O [Example 86, N-(4-{[{[2,4-dihydroxy-5-(propan-2-yl)phenyl]carbonyl}(methyl)amino]methyl}benzyl)-2-methylalanine] |
| < 100 nM | – | – | – | CCCC[C@H](NC1CCN(C(=O)c2cc(C(C)C)c(O)cc2O)CC1)C(=O)O [Example 105, N-(1-{[2,4-dihydroxy-5-(propan-2-yl)phenyl]carbonyl}piperidin-4-yl)-L-norleucine] |
| < 100 nM | – | – | – | CC(C)c1cc(C(=O)N2Cc3ccc(CCNC4(C(=O)O)CCCC4)cc3C2)c(O)cc1O [Example 93, 1-{[2-(2-{[2,4-dihydroxy-5-(propan-2-yl)phenyl]carbonyl}-2,3-dihydro-1H-isoindol-5-yl)ethyl]amino}cyclopentanecarboxylic acid] |
| < 100 nM | – | – | – | CC(C)c1cc(C(=O)N(C)Cc2cccc(CNC(C)(C)C(=O)O)c2)c(O)cc1O [Example 87, N-(3-{[{[2,4-dihydroxy-5-(propan-2-yl)phenyl]carbonyl}(methyl)amino]methyl}benzyl)-2-methylalanine] |
| < 100 nM | – | – | similar | CC(C)c1cc(C(=O)N2CCC(N[C@@H](COC(C)(C)C)C(=O)O)CC2)c(O)cc1O [Example 122, O-tert-butyl-N-(1-{[2,4-dihydroxy-5-(propan-2-yl)phenyl]carbonyl}piperidin-4-yl)-L-serine] |
| < 100 nM | – | – | – | CC(C)c1cc(C(=O)N2CCC(CCN[C@@H](COC(C)(C)C)C(=O)OC(C)(C)C)CC2)c(O)cc1O [Example 53, tert-butyl O-tert-butyl-N-[2-(1-{[2,4-dihydroxy-5-(propan-2-yl)phenyl]carbonyl}piperidin-4-yl)ethyl]-L-serinate] |
| < 100 nM | – | – | – | CC(C)c1cc(C(=O)N2CCC(CCN[C@@H](C)C(=O)O)CC2)c(O)cc1O [Example 92, N-[2-(1-{[2,4-dihydroxy-5-(propan-2-yl)phenyl]carbonyl}piperidin-4-yl)ethyl]-L-alanine] |
| < 100 nM | – | – | – | CC(C)c1cc(C(=O)N2CCC(N[C@H](C(=O)O)C3CCCCC3)CC2)c(O)cc1O [Example 113] |
| 100 to 1000 nM | – | – | – | CC(C)C[C@H](NC1CCCN(C(=O)c2cc(C(C)C)c(O)cc2O)C1)C(=O)O (stereo partly drawn) [Example 102, N-(1-{[2,4-dihydroxy-5-(propan-2-yl)phenyl]carbonyl}piperidin-3-yl)-L-leucine] |
| < 100 nM | – | – | – | CC(C)c1cc(C(=O)N2CCC(CCN[C@@H](Cc3ccccc3)C(=O)OC(C)(C)C)CC2)c(O)cc1O [Example 41, tert-butyl N-[2-(1-{[2,4-dihydroxy-5-(propan-2-yl)phenyl]carbonyl}piperidin-4-yl)ethyl]-L-phenylalaninate] |

Continued, compound first:

| Compound | IC50 [1] | IC50 ([2]; Homo sapiens, THP-1) | IC50 [2] | IC50 in the Hsp90 binding assay compared with CHR-7310 ([1]; in words, relative to non-ester parent CHR-7310) |
| --- | --- | --- | --- | --- |
| CC(C)C[C@@H](NC1CCN(C(=O)c2cc(C(C)C)c(O)cc2O)CC1)C(=O)OC1CCCC1 [Example 12, cyclopentyl N-(1-{[2,4-dihydroxy-5-(propan-2-yl)phenyl]carbonyl}piperidin-4-yl)-D-leucinate] | < 100 nM | > 1000 nM | – | – |
| CC(C)c1cc(C(=O)N2CCC(N[C@@H](C)C(=O)OC(C)(C)C)CC2)c(O)cc1O [Example 8, tert-butyl N-(1-{[2,4-dihydroxy-5-(propan-2-yl)phenyl]carbonyl}piperidin-4-yl)-L-alaninate] | < 100 nM | > 1000 nM | – | – |
| CC(C)c1cc(C(=O)N2CCC(CN[C@H](C(=O)OC3CCCC3)C3CCCCC3)CC2)c(O)cc1O [Example 30, cyclopentyl (2S)-cyclohexyl{[(1-{[2,4-dihydroxy-5-(propan-2-yl)phenyl]carbonyl}piperidin-4-yl)methyl]amino}ethanoate] | 100 to 1000 nM | > 1000 nM | – | – |
| CC(C)c1cc(C(=O)N2CCC(N[C@@H](COC(C)(C)C)C(=O)OC(C)(C)C)CC2)c(O)cc1O [Example 11, tert-butyl O-tert-butyl-N-(1-{[2,4-dihydroxy-5-(propan-2-yl)phenyl]carbonyl}piperidin-4-yl)-L-serinate] | < 100 nM | > 1000 nM | – | – |
| CC(C)C[C@H](NC1CCN(C(=O)c2cc(C(C)C)c(O)cc2O)CC1)C(=O)OC(C)(C)C [Example 6, tert-butyl N-(1-{[2,4-dihydroxy-5-(propan-2-yl)phenyl]carbonyl}piperidin-4-yl)-L-leucinate] | < 100 nM | > 1000 nM | – | – |
| CC(C)c1cc(C(=O)N2CCC(CN[C@@H](CO)C(=O)OC(C)(C)C)CC2)c(O)cc1O [Example 37, tert-butyl N-[(1-{[2,4-dihydroxy-5-(propan-2-yl)phenyl]carbonyl}piperidin-4-yl)methyl]-L-serinate] | < 100 nM | 100 to 1000 nM | – | – |
| CC(C)C[C@@H](NC1CCN(C(=O)c2cc(C(C)C)c(O)cc2O)CC1)C(=O)OC(C)(C)C [Example 19, tert-butyl N-(1-{[2,4-dihydroxy-5-(propan-2-yl)phenyl]carbonyl}piperidin-4-yl)-D-leucinate] | < 100 nM | > 1000 nM | – | – |
| CC(C)c1cc(C(=O)N2CCC(CN[C@@H](C)C(=O)OC(C)(C)C)CC2)c(O)cc1O [Example 26, tert-butyl N-[(1-{[2,4-dihydroxy-5-(propan-2-yl)phenyl]carbonyl}piperidin-4-yl)methyl]-L-alaninate] | < 100 nM | > 1000 nM | – | – |
| CC(C)c1cc(C(=O)N2CCC(N[C@@H](Cc3ccccc3)C(=O)OC(C)(C)C)CC2)c(O)cc1O [Example 16, tert-butyl N-(1-{[2,4-dihydroxy-5-(propan-2-yl)phenyl]carbonyl}piperidin-4-yl)-L-phenylalaninate] | < 100 nM | > 1000 nM | – | – |
| cyclopentyl N-[(1-{[2,4-dihydroxy-5-(propan-2-yl)phenyl]carbonyl}piperidin-4-yl)methyl]-L-valinate [Example 29] | < 100 nM | – | > 1000 nM | – |
| CC(C)c1cc(C(=O)N2CCC(N[C@@H](CO)C(=O)OC3CCCC3)CC2)c(O)cc1O [Example 18, cyclopentyl N-(1-{[2,4-dihydroxy-5-(propan-2-yl)phenyl]carbonyl}piperidin-4-yl)-L-serinate] | < 100 nM | 100 to 1000 nM | – | – |
| CC(C)c1cc(C(=O)N2CCC(CN[C@H](C(=O)OC(C)(C)C)C3CCCCC3)CC2)c(O)cc1O [Example 31, tert-butyl (2S)-cyclohexyl{[(1-{[2,4-dihydroxy-5-(propan-2-yl)phenyl]carbonyl}piperidin-4-yl)methyl]amino}ethanoate] | 100 to 1000 nM | – | – | – |
| CC(C)c1cc(C(=O)N2CCC(N[C@H](C(=O)OC(C)(C)C)C3CCCCC3)CC2)c(O)cc1O [Example 15, tert-butyl (2S)-cyclohexyl[(1-{[2,4-dihydroxy-5-(propan-2-yl)phenyl]carbonyl}piperidin-4-yl)amino]ethanoate] | 100 to 1000 nM | – | – | – |
